Experimental data taken from patent US8946382B2, “Apelin peptides and methods of use” (The United States of America, as represented by the …, priority 2009, dated 2015).
Entries after “also recorded” stand apart in the source; their conditions may differ. Where no end group is shown, it is not given here. The star is where a group is joined. Biotin = O=C1N[C@H]2[C@H](CS[C@H]2CCCCC(=O)*)N1

What was measured:
[1] = test system: porcine aortic endothelial (PAE) cells; assay: In vitro tube formation assay; type: cell-based
Experimental: Porcine aortic endothelial (PAE) cells were stably transfected with Green Fluorescent Protein (GFP) and seeded at a concentration of 18,000 cells per well of a 96-well culture plate. The wells were coated with […] basement membrane matrix (Invitrogen, CA). Cells were resuspended in medium at a concentration of 2.25×10^5 to 2.5×10^5 cells/ml. An […] (18,000-20,000) cells were added per well. Positive control cells were cultured with medium supplemented with 1.0% fetal bovine serum (FBS). Negative control cells were cultured with serum-free medium. […] After three or more hours of incubation, cells were assessed for tube formation and were photographed. Assays were performed in triplicate.

[2] = biological target: T1, apelin G protein receptor (known as APJ) (Homo sapiens, UniProt P35414); details: Tatemoto et al. 1998; cited from earlier work
T1 sequence (P35414 1-380): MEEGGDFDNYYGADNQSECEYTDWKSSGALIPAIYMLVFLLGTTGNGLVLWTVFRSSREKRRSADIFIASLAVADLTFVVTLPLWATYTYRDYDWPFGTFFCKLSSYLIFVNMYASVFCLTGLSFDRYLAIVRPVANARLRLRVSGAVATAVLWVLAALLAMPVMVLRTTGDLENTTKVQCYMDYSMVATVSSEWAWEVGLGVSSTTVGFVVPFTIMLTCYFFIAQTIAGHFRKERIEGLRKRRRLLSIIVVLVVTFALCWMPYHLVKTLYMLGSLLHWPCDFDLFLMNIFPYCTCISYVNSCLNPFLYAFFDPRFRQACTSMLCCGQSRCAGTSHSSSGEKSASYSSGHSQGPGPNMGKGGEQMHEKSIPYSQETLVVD

[3] = biological target: T2, APJ receptor (Homo sapiens, UniProt P35414); details: cited from earlier work
T2 sequence (P35414 1-380): T1 sequence (P35414 1-380)

[4] = test system: human breast cancer cell line MDA-MB-435; assay: Proliferation assay, MDA-MB-435; type: cell-based; details: for proliferative response over dose range: dose range of 1 nM to 1 uM; for relative potency in proliferation assays: salcut-NH2 of two manufacturers vs biotinylated salcut, FIG. 14A-14C
Source text: An N-terminal biotinylated salcut-NH2 ligand was synthesized (a single biotin moiety was attached to the amino-terminal leucine residue). Validity of the chemical composition of the biotinylated salcut-NH2 was accomplished using amino acid sequence analysis and MADLI-TOF mass spectrometry characterization.

[5] = test system: MDA-MB-345 cells; assay: Binding of biotinylated salcut-NH2 to cells (fluorescent labeling); type: cell-based, human
[6] = test system: human blood vessel endothelial (HMEC-1) cells; assay: Proliferation assay (ATPLITE), HMEC-1; type: cell-based; details: FIGS. 3E, 3F, 6
Source text: (§1) Proliferation response profiles of apelin, salcut-NH2, salcut-Gly, and/or salcut-OH on a variety of endothelial and tumor cell lines or primary endothelial cells were obtained using the following method. Human blood vessel endothelial cells (HMEC-1), human primary microvascular dermal EC (dB1), human lymphatic endothelial cells (LEC), human mast cells (HMC-1), human breast cancer cells (MCF-7; T47D), human gastric cancer cells (HTB 103), human lung cancer cells (A549), monkey endothelial cells (CRL 1780), and porcine aortic endothelial cells (PAE) were seeded at 25,000 cells per well at 50 μl volume in appropriate media containing 0.5% serum in a 96 well plate. After overnight incubation the peptide was added in serum free media and cells were incubated for 3-5 days. To measure growth proliferation, the adenosine triphosphate ATPLITE™ one-step assay (PerkinElmer), which is based on firefly luciferase and has high sensitivity for quantification of viable cells, was used. Data were expressed as mean plus minus standard deviation. Statistical analyses were performed using Student's t-test, p values less than 0.05 were considered statistically significant.
Endothelial cell proliferation assays were performed as described above with both spontaneously immortalized porcine aortic endothelial (PAE) cells and SV40 immortalized human dermal microvascular endothelial (HMEC-1).

[7] = test system: endothelial and tumor cell lines or primary endothelial cells; assay: Proliferation response (ATPLITE one-step assay) on a variety of endothelial and tumor cell lines; type: cell-based; details: 3E
Source text: as §1

[8] = test system: human lung cancer cell line A549; assay: Proliferation assay (ATPLITE), A549; type: cell-based
Source text: as §1

[9] = test system: human breast cancer cell line MCF-7; assay: Proliferation assay (ATPLITE), MCF-7; type: cell-based; details: 1 nM to 1 μM dose range; FIG. 4A
Source text: as §1

[10] = test system: human gastric cancer cell line HTB-103; assay: Proliferation assay (ATPLITE), HTB 103; type: cell-based; details: FIG. 5
Source text: as §1

[11] = test system: human mast cell line HMC-1; assay: Proliferation assay (ATPLITE), HMC-1; type: cell-based; details: FIG. 5
Source text: as §1

[12] = test system: rat aortic ring; assay: Rat aortic ring assay (vessel outcropping); type: cell-based
Experimental: On day 0, rats were euthanized and decapitated, and aortas were harvested and transferred to a culture dish containing EGM-2 with growth factors (20 ml media; Clonetics). Fibroadipose tissue and other non-aortic tissue were removed. Using dissecting microscope, the aorta was sectioned into 1 mm-long rings. Aortic rings were then rinsed 6-8× with EGM-2 with growth factors. Aortic rings were each placed in the center of a matrix (GELTREX™; Invitrogen Corp)-coated culture well. Aortic tissue was covered with 250 μl GELTREX™ and each well was incubated with 1 ml EGM-2 with growth factors supplemented for 24 hours at 37° C., 5% CO2.
On day 1, media with growth factors was removed, 250 μl of media (without growth factors) with either 0.1 nM, 1.0 nM, or 10 nM of salcut-NH2 was added to each well and incubated at 37° C., 5% CO2 for 5-7 days.

[13] = test system: A549 human bronchioloalveolar cancer cells; assay: Nude mouse xenograft study; type: in vivo, nude mice; details: 10 μM
Experimental: (§2) Six week old female nude mice were used in this study; ten mice were used per test group. A549 human bronchioloalveolar cancer cells were cultured at the SAIC/Frederick facility. 1×10^7 A549 cells were injected subcutaneously in the hindquarter of each nude mouse. The following treatment regime was started seven days following tumor injection: Group 1—PBS control; Group 2—salcut-NH2 peptide (10 μM). Appropriate Groups were treated with 25 μl injections at four corners around the tumor, three times per week for five weeks. Mice were inspected, weighed, and tumors measured (H×W×L) three times per week with calipers. Following completion of the experiment, mice were euthanized, tumors excised, and cut into four pieces. Two segments were frozen and stored at −80° C. and two segments were paraffin embedded for pathology.
as §2, with “In another experiment, six” for “Six”, “(10 pM); Group 3—salcut-NH2 peptide (10 nM); Group 4—salcut-NH2 peptide (10” for “(10”, “100” for “25”, “intraperitoneally,” for “at four corners around the tumor,”, “four” for “five”

Substance: (Ala13)-apelin-13 [reference compound]
- effect of antagonist on endothelial cell tube formation ([1]; in the presence of 1 nM apelin-13, FIG. 8): inhibited endothelial cell tube formation

Substance: apelin-17
- potency of peptide-induced acidification rates [2]: moderately potent
- binding to the APJ receptor [3]: can bind the APJ receptor

Substance: biotinylated salcut: N-terminal biotinylated salcut-NH2 ligand; a single biotin moiety attached to the amino-terminal leucine residue (Biotin-LVQPRGSRNGPGPWQG-NH2; SMILES CC(C)C[C@H](NC(=O)CCCC[C@@H]1SC[C@@H]2NC(=O)N[C@@H]21)C(=O)N[C@H](C(=O)N[C@@H](CCC(N)=O)C(=O)N1CCC[C@H]1C(=O)N[C@@H](CCCNC(=N)N)C(=O)NCC(=O)N[C@@H](CO)C(=O)N[C@@H](CCCNC(=N)N)C(=O)N[C@@H](CC(N)=O)C(=O)NCC(=O)N1CCC[C@H]1C(=O)NCC(=O)N1CCC[C@H]1C(=O)N[C@@H](Cc1c[nH]c2ccccc12)C(=O)N[C@@H](CCC(N)=O)C(=O)NCC(N)=O)C(C)C)
- proliferative response over dose range [4]: large change in response
- relative potency in proliferation assays [4]: equipotent in proliferation assays
- binding to cells (fluorescent labeling) [5]: high intensity fluorescent labeling

Substance: salcut-Gly: glycine-extended form of human apelin-36 (42-57) (LVQPRGSRNGPGPWQGG; homo sapiens)
- effect on HMEC-1 proliferation [6]: non-responsive over the dose range tested; also recorded: minor effect on proliferation; also recorded: do not have a statistically significant effect on cell growth
- effect on HMEC-1 proliferation ([6]; listed as salcut Gly): no effect on HMEC-1 cell proliferation

Substance: salcut-NH2: amide derivative of human apelin-36 (42-57), sixteen amino acid peptide from residues 42-57 of apelin preproprotein (LVQPRGSRNGPGPWQG-NH2)
- concentration having a suppressive effect on cell proliferation ([7]; FIGS. 3A-3D, 3G, 3I-3O): ≥ 10 nM
- cell proliferation (relative luminescent units [RLU]) ([7]; compared to cells cultured in the absence of these compounds (0 Rx), FIGS. 3A-3C, 3G-3O): increases
- effect on proliferation (stimulation) ([8]; 10 nM to 100 pM range, FIG. 3D): neither apelin-13 (65-77) nor salcut-NH2 affect proliferation; also recorded: does not stimulate proliferation
- effect on proliferation at higher concentrations ([8]; higher concentrations, 1 nM to 1 μM dose range (FIG. 4B)): lack of a statistically significant proliferative response; also recorded: cell growth suppressive effect at higher concentrations; also recorded: did not respond in a statistically significant manner
- effect on HMEC-1 proliferation [6]: biphasic response curve; also recorded: potent stimulators of HMEC-1 proliferation; also recorded: biphasic (rise and fall) response
- proliferative dose response [9]: biphasic response curve; also recorded: biphasic (rise and fall) response
- proliferative dose response [10]: biphasic response curves; also recorded: biphasic (rise and fall) response
- proliferative dose response [11]: biphasic response curves; also recorded: only responded to lower concentrations of salcut-NH2 by stimulating proliferation
- proliferative response over dose range [4]: large change in response
- relative potency in proliferation assays [4]: equipotent in proliferation assays
- concentration at which a suppressive effect on tube formation was observed [1]: exceeding 10 nM
- number of vessels forming from the aortic ring ([12]; 0.1 nM, 1.0 nM, 10 nM, 5-7 days, FIG. 9): number of vessels formed increase with increasing concentration; also recorded: increased number of vessels forming from the aortic ring
- vessel formation within the aortic ring ([12]; 10 nM dose): Vessels begin to form with the ring; also recorded: vessels were beginning to form within the aortic ring
- tumor growth ([13]; 10 pM, 10 nM, 100 μl intraperitoneally, three times per week for four weeks, compared to PBS, FIG. 12): reduced tumor growth
- tumor growth ([13]; 25 μl injections at four corners around the tumor, three times per week for five weeks, compared to PBS): dramatic reduction in tumor growth
- tumor growth ([13]; 100 μl intraperitoneally, three times per week for four weeks): highly statistically significant (<0.005) suppression of tumor growth
- inhibition of binding of biotinylated salcut-NH2 to cells ([5]; unlabeled peptide in the presence of biotinylated salcut-NH2): can be inhibited

Substance: salcut-OH: human apelin-36 (42-57), the free-acid derivative of salcut (LVQPRGSRNGPGPWQG-OH)
- effect on HMEC-1 proliferation [6]: minor effect on proliferation; also recorded: do not have a statistically significant effect on cell growth
- effect on HMEC-1 proliferation ([6]; listed as Salcut-OH): non-responsive over the dose range tested
- effect on HMEC-1 proliferation ([6]; listed as salcut OH): no effect on HMEC-1 cell proliferation
